Measurements: ChEMBL document CHEMBL1201862, “PubChem BioAssay data set” (2004)
Active and inactive are the calls of the source.

Tests used:
Aminopeptidase N = biological target: T1, Aminopeptidase N (Plasmodium falciparum FcB1/Columbia, UniProt O96935); assay: P. falciparum M1AAP inhibitors, biochemical, fluorogenic H-Leu-NHMec substrate, 1536-well (AID 1445); set-up: species or system Plasmodium falciparum 3D7, 3D7
T1 sequence (O96935 whole entry): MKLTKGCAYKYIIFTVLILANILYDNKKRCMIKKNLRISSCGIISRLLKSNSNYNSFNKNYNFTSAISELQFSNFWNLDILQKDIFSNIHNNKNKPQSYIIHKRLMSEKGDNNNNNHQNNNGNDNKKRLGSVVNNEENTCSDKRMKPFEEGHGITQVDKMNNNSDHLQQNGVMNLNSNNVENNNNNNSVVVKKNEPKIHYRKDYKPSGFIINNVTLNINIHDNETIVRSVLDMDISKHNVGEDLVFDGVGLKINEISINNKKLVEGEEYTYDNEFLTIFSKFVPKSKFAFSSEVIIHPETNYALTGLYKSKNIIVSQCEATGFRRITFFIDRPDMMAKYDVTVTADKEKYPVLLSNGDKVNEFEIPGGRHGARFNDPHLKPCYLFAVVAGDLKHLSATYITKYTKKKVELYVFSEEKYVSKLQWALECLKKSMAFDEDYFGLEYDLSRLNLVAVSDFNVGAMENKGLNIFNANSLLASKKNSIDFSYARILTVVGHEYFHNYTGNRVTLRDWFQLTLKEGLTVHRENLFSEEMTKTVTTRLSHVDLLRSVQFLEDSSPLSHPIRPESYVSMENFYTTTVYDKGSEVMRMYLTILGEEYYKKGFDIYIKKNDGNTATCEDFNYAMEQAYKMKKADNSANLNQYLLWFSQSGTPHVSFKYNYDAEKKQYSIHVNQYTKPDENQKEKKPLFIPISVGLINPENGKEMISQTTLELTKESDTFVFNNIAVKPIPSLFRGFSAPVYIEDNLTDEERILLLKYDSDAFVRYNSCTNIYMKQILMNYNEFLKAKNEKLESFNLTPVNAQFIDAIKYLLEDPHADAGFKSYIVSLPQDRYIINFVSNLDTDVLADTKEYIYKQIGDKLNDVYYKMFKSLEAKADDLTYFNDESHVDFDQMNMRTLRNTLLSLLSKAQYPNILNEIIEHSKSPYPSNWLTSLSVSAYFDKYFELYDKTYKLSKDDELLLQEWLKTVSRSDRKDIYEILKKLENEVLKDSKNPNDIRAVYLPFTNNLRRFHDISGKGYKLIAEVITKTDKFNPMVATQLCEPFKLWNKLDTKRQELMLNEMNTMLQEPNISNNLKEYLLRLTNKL

Large T antigen = Large T antigen (Simian virus 40, UniProt P03070); assay type: functional, Betapolyomavirus macacae;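 note: Confirmatory-stage PubChem screen for compounds that inhibit SV40 T antigen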
Leucine aminopeptidase = biological target: T2, Leucine aminopeptidase (Plasmodium falciparum 3D7, UniProt Q8IL11); assay: P. falciparum M17LAP inhibitors, primary screen, biochemical, fluorogenic H-Leu-NHMec substrate, 1536-well (AID 1619); assay type: functional
T2 sequence (Q8IL11 whole entry): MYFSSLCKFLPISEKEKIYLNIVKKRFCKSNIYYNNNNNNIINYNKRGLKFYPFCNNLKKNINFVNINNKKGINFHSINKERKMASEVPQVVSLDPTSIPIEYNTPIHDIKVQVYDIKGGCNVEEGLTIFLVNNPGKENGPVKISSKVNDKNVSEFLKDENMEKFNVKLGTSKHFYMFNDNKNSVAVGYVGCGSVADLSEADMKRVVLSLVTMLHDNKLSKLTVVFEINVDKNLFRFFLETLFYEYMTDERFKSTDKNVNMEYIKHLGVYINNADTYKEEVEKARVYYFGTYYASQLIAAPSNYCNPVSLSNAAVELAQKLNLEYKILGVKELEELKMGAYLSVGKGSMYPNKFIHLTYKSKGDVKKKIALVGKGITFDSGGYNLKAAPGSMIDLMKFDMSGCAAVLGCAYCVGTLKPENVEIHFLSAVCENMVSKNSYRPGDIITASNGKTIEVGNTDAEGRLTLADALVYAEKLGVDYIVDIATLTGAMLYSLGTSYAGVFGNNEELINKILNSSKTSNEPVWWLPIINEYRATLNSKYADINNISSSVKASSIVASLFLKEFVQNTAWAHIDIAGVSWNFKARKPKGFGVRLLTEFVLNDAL

[1] = biological target: Glucose-6-phosphate 1-dehydrogenase (Homo sapiens, UniProt P11413); assay: human G6PD enzyme inhibitors, dose response, selectivity assay for P. falciparum G6PD inhibitor project, biochemical, fluorescence (AID 504792); assay type: functional
Procathepsin L = Procathepsin L (Homo sapiens, UniProt P07711)
[2] = biological target: T3, Mannose-6-phosphate isomerase (Homo sapiens, UniProt P34949); assay: human PMI inhibitors, high substrate, primary screen, biochemical, fluorescence intensity, high mannose 6-phosphate (AID 1220)
T3 sequence (P34949 whole entry): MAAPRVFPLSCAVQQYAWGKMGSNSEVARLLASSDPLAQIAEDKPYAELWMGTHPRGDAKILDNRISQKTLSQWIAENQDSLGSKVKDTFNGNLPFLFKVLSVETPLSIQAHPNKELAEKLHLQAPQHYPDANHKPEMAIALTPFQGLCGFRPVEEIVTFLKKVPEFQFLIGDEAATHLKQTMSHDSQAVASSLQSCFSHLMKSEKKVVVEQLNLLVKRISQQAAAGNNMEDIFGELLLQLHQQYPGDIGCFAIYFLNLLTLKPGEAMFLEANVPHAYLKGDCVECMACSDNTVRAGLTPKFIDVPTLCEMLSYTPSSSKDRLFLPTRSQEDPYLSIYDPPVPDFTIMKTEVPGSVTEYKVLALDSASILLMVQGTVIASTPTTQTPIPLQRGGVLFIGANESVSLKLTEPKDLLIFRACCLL

Aspartyl aminopeptidase = biological target: T4, Aspartyl aminopeptidase (Plasmodium falciparum 3D7, UniProt Q8I2J3)
T4 sequence (Q8I2J3 whole entry): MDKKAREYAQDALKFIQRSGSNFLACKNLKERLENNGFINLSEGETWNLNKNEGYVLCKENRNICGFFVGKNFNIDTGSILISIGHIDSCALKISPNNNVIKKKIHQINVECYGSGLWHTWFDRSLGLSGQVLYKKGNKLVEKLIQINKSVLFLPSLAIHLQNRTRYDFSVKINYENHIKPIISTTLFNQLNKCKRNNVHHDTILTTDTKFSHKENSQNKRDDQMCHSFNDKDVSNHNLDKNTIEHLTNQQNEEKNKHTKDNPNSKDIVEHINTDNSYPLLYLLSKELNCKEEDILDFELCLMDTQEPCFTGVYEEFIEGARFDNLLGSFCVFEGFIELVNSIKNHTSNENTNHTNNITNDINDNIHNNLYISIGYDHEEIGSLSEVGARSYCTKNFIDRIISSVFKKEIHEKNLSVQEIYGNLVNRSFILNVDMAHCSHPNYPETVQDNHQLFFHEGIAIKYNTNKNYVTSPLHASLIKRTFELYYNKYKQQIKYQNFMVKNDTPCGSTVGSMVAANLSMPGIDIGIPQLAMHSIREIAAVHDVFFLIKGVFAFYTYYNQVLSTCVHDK

[3] = NIH-3T3 fibroblast cytotoxicity, dose response, cytotoxicity control, cell-based, fluorescence, Alamar Blue, secondary assay (AID 2327); assay type: functional;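 note: NIH-3T3 mouse fibroblasts cultured with fluconazole at 8 µg/mL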
[4] = biological target: T5, Histone-lysine N-methyltransferase NSD2 (Homo sapiens, UniProt O96028); assay type: biochemical
T5 sequence (O96028 whole entry): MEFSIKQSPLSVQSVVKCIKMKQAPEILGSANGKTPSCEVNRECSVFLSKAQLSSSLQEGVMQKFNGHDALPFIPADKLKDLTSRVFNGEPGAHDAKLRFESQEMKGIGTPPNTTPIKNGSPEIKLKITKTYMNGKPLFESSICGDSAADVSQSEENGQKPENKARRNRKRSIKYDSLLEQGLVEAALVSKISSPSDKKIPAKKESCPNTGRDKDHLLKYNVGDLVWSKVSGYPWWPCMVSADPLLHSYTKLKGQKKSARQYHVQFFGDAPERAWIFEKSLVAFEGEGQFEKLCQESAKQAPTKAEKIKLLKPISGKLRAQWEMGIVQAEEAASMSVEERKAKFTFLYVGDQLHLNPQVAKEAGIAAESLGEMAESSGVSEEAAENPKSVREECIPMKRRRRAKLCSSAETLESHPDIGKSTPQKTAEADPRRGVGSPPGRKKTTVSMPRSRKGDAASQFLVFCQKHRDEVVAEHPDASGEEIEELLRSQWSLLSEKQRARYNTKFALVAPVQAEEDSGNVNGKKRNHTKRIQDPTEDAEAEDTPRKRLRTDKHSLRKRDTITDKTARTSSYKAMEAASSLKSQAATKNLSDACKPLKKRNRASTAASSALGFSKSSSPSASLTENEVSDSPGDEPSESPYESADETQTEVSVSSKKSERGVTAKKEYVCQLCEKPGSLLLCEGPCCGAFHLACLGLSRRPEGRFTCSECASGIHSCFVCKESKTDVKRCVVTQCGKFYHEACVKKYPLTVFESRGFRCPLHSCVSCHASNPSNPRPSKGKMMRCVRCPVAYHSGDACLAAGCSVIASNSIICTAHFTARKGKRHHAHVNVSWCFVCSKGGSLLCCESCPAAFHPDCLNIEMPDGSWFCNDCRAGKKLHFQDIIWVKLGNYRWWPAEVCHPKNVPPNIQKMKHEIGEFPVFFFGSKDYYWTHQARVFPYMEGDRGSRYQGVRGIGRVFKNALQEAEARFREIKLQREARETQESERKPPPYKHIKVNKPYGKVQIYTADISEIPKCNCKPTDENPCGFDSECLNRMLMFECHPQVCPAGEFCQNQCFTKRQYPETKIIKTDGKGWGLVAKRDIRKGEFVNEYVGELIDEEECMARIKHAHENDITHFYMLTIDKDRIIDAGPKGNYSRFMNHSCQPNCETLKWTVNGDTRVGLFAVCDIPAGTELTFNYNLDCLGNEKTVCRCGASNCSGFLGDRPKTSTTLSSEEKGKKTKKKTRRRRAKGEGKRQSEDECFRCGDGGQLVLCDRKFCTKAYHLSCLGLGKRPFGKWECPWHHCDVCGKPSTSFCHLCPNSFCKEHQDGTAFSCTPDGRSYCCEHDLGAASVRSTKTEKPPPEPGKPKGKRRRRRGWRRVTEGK

[5] = C. albicans growth with fluconazole, confirmation, fluorescence, retest (AID 2467); assay type: functional, cell-based

Sequence of Procathepsin L (P07711 whole entry): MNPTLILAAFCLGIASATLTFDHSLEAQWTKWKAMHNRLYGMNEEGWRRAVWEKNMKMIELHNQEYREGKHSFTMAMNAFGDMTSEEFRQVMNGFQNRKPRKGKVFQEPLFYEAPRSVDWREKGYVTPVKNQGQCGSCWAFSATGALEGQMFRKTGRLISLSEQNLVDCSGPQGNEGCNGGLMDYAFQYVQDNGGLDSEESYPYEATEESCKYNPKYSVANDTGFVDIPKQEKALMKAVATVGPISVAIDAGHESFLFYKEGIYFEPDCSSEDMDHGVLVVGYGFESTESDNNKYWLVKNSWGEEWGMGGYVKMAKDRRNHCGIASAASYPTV
Sequence of Glucose-6-phosphate 1-dehydrogenase (P11413 whole entry): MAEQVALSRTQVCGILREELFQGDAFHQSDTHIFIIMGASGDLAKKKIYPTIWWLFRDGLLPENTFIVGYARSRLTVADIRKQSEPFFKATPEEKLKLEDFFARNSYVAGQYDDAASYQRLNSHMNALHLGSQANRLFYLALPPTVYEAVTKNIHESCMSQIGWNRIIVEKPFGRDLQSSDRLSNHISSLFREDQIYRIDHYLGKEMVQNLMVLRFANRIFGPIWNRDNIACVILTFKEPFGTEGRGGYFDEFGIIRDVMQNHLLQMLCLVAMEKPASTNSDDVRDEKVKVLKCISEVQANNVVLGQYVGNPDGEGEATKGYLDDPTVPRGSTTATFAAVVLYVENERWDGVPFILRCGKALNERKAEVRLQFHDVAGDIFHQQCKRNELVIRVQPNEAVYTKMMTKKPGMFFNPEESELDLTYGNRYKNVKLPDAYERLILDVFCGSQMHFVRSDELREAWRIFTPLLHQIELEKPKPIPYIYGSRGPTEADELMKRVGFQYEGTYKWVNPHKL
Sequence of Large T antigen (P03070 whole entry): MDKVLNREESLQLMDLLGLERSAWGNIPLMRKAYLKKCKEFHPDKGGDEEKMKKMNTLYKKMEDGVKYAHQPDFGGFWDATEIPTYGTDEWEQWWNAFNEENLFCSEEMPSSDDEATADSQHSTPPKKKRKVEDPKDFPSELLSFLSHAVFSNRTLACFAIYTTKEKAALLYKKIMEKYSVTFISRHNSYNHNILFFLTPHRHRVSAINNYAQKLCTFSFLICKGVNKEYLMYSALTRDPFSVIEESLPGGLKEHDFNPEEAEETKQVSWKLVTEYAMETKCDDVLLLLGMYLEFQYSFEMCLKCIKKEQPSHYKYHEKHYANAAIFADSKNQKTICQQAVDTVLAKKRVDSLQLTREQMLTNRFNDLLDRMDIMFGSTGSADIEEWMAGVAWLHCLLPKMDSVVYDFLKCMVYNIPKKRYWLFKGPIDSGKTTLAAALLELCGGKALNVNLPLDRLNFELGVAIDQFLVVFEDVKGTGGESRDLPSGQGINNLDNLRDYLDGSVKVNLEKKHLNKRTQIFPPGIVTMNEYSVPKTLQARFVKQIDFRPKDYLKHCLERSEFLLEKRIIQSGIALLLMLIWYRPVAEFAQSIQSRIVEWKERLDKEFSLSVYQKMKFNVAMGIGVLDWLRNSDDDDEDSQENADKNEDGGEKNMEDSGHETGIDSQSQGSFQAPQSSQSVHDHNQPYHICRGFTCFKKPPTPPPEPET

IC50 (Aminopeptidase N) | IC50 (Large T antigen) | SMILES | IC50 (Leucine aminopeptidase) | IC50 [1] | IC50 (Procathepsin L) | IC50 [2] | IC50 (Aspartyl aminopeptidase) | EC50 [3] | AC50 [4] | EC50 [5]
26.5 µM (active) |  | CCOc1cc(/C=C2\N=C(SC)SC2=O)cc([N+](=O)[O-])c1OC(C)=O |  |  |  |  |  |  |  | 
19.2 µM (active) | 10.1 µM (active) | COc1cc(/C=C2\SC(=S)N(NS(=O)(=O)c3ccc(C)cc3)C2=O)ccc1O | 27.1 µM (active) |  |  |  |  |  |  | 
 |  | C[C@]12CC[C@@H]3c4ccc(O)c(O)c4CC[C@H]3[C@@H]1CC[C@@H]2O |  | 29.1 µM (inactive) | > 59.6 µM (not active) | 29 µM (active) | 1.22 µM (active) |  |  | 
 |  | COc1cccc2c(SCC(=O)N/N=C/c3ccc(O)c(O)c3)cc(C)nc12 | 16.2 µM (active) |  | > 59.6 µM (not active) |  | 2.01 µM (active) | 26.3 µM (active) | 10.4 µM (active) | > 38 µM (not active)
